Laboratory results reported in publication PMC11728707, “Chemical Composition and Assessment of the Anti-Inflammatory, Antioxidant, Cytotoxic and Skin Enzyme Inhibitory Activities of Citrus sinensis (L.) Osbeck Essential Oil and Its Major Compound Limonene” (Pharmaceuticals, 2024).

Biological target: T1, tyrosinase
T1 construct: gene PPO3
Experiment: spectrophotometric L-DOPA oxidation assay, […] nm
Format: biochemical
Conditions: 5 mM L-DOPA, 50 mM phosphate pH 6.5, 37 °C

Row | Structure (SMILES) | Tyrosinase
1 | C=C(C)[C@H]1CC=C(C)CC1 [Limonene] | 86.07 ± 1.53 µg/mL
2 | O=c1c(O)c(-c2ccc(O)c(O)c2)oc2cc(O)cc(O)c12 [Quercetin] | 111.03 ± 0.1 µg/mL
